Values quoted from earlier work in patent US20260265370A1, “COMBINATION THERAPIES INVOLVING CLAUDIN 18.2 ANTAGONISTS FOR TREATMENT OF CANCER” (SUZHOU TRANSCENTA THERAPEUTICS CO., LTD., priority 2023, published 2026).
Where two headings read alike, the source gives them in different places.

Assays:
advanced GC/GEJ cancer = settings: cited from earlier work
[1] = test system: CLDN18.2+/HER2− locally advanced or metastatic gastric or gastroesophageal junction (mG/GEJ) adenocarcinoma; settings: cited from earlier work; for ORR: patients with measurable disease
[2] = test system: unresectable advanced or recurrent gastric cancer; settings: cited from earlier work
[3] = CLDN18.2 ≥75% tumor cell staining 2+ or 3+
[4] = zolbetuximab+CAPOX vs PBO+CAPOX

Zolbetuximab: first-in-class, chimeric monoclonal antibody specific to a CLDN18.2 epitope
tolerability (advanced GC/GEJ cancer; in vivo): well-tolerated
ORR (advanced GC/GEJ cancer; phase IIa monotherapy, strong CLDN18.2 expression, ≥2+ staining intensity in 70% of tumor cells): 14%

Zolbetuximab + CAPOX: GLOW arm: zolbetuximab plus capecitabine and oxaliplatin
mDoR [1, 3]: 6.28 months
mPFS [1, 3]: 8.21 months
ORR [1, 3]: 53.8%
ORR ([1]; CLDN18.2 ≥75% tumor cell staining 2+ or 3+, listed as Zolbetuximab+CAPOX): 53.8%
ORR ([1]; CLDN18.2 ≥75% tumor cell staining 2+ or 3+, listed as zolbetuximab+CAPOX): 53.8%
OS median ([1]; in vivo): 14.39 mo
TEAE decreased appetite ([1]; in vivo): 41.3%
TEAE nausea ([1]; in vivo): 68.5%
TEAE vomiting ([1]; in vivo): 66.1%
drug-related TEAEs leading to death ([1]; in vivo): 2.4%
grade ≥3 TEAEs ([1]; in vivo): 72.8%
serious TEAEs ([1]; in vivo): 47.2%
HR of OS [1, 4]: 0.771
HR of PFS [1, 4]: 0.687

Nivolumab: PD-1 checkpoint inhibitor
ORR ([2]; in vivo): 11%
12-month OS rate ([2]; n=330): 26.2%
overall survival (OS) ([2]; progressed after two or more chemotherapy regimens): 5.26 months
HR of OS ([2]; vs placebo): 0.63
